Data from publication PMC4032624 (Molecular cell, 2013).

Experiments:
γH2Ax = γH2Ax level by Western blot in U2OS cells; assay type: cell-based; settings: UNC0638 with etoposide
G9a/GLC = test: H3K9me2 level in U2OS cells; assay type: cell-based; settings: incubation with inhibitor vs solvent DMSO
pT2609 and γH2Ax foci = test: Confocal immunofluorescence of pT2609-DNA-PKcs and γH2Ax foci in U2OS cells; settings: UNC0638 together with ETO, Pearson correlation coefficient, n=5

COc1cc2c(NC3CCN(C(C)C)CC3)nc(C3CCCCC3)nc2cc1OCCCN1CCCC1 [UNC0638]
effect on etoposide-induced γH2Ax pattern (γH2Ax): not affected | H3K9me2 level (G9a/GLC): decreased | colocalization pattern of γH2Ax and pT2609 foci (pT2609 and γH2Ax foci): did not significantly alter
